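Five compound concentrations were applied to cells in 96-well plates for 48 hours; endpoints were derived by simple linear interpolation of the resulting dose-response curve. TGI: concentration producing complete growth inhibition.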
Key:
Assay in all cases: inhibition of tumour cell growth, NCI panel, 48 h
[1] = system: 786-0 renal
[2] = system: A549 NSCLC
[3] = system: BT-549 breast
[4] = system: CCRF-CEM leukemia
[5] = system: COLO 205 colon
[6] = system: DU-145 prostate
[7] = system: HCT-116 colon
[8] = system: HCT-15 colon
[9] = system: HL-60(TB) leukemia
[10] = system: HOP-62 NSCLC
[11] = system: HOP-92 NSCLC
[12] = system: HS 578T breast
[13] = system: HT29 colon
[14] = system: IGROV1 ovarian
[15] = system: K-562 leukemia
[16] = system: KM12 colon
[17] = system: LOX IMVI melanoma
[18] = system: M14 melanoma
[19] = system: MALME-3M melanoma
[20] = system: MDA-MB-231 breast
[21] = system: MDA-N
[22] = system: MOLT-4 leukemia
[23] = system: NCI-H23 lung
[24] = system: NCI-H460 lung
[25] = system: NCI-H522 lung
[26] = system: NCI/ADR-RES ovarian
[27] = system: OVCAR-4 ovarian
[28] = system: OVCAR-5 ovarian
[29] = system: OVCAR-8 ovarian
[30] = system: PC-3 prostate
[31] = system: RPMI-8226 leukemia
[32] = system: RXF 393 renal
[33] = system: SF-268 CNS
[34] = system: SF-295 CNS
[35] = system: SF-539 CNS
[36] = system: SK-MEL-2 melanoma
[37] = system: SK-MEL-28 melanoma
[38] = system: SK-MEL-5 melanoma
[39] = system: SK-OV-3 ovarian
[40] = system: SN12C renal
[41] = system: SNB-19 CNS
[42] = system: SNB-75 CNS
[43] = system: SR leukemia
[44] = system: SW-620 colon
[45] = system: T-47D breast
[46] = system: TK-10 renal
[47] = system: U251 CNS
[48] = system: UACC-257 melanoma
[49] = system: UO-31 renal
[50] = system: A498 renal
[51] = system: ACHN renal
[52] = system: CAKI-1 renal
[53] = system: EKVX NSCLC
[54] = system: MDA-MB-435
[55] = system: NCI-H226 lung
[56] = system: OVCAR-3 ovarian
[57] = system: UACC-62 melanoma
[58] = system: HCC-2998 colon
[59] = system: MCF7 breast

Cc1ccc(S(=O)(=O)NC(=O)NC(Cc2ccc(O)cc2)C(=O)O)cc1 (stereo not given)
TGI [1]: > 100 µM | TGI [2]: > 100 µM | TGI [3]: > 100 µM | TGI [4]: > 100 µM | TGI [5]: > 100 µM | TGI [6]: > 100 µM | TGI [7]: > 100 µM | TGI [8]: > 100 µM | TGI [9]: > 100 µM | TGI [10]: > 100 µM | TGI [11]: > 100 µM | TGI [12]: > 100 µM | TGI [13]: > 100 µM | TGI [14]: > 100 µM | TGI [15]: > 100 µM | TGI [16]: > 100 µM | TGI [17]: > 100 µM | TGI [18]: > 100 µM | TGI [19]: > 100 µM | TGI [20]: > 100 µM | TGI [21]: > 100 µM | TGI [22]: > 100 µM | TGI [23]: > 100 µM | TGI [24]: > 100 µM | TGI [25]: > 100 µM | TGI [26]: > 100 µM | TGI [27]: > 100 µM | TGI [28]: > 100 µM | TGI [29]: > 100 µM | TGI [30]: > 100 µM | TGI [31]: > 100 µM | TGI [32]: > 100 µM | TGI [33]: > 100 µM | TGI [34]: > 100 µM | TGI [35]: > 100 µM | TGI [36]: > 100 µM | TGI [37]: > 100 µM | TGI [38]: > 100 µM | TGI [39]: > 100 µM | TGI [40]: > 100 µM | TGI [41]: > 100 µM | TGI [42]: > 100 µM | TGI [43]: > 100 µM | TGI [44]: > 100 µM | TGI [45]: > 100 µM | TGI [46]: > 100 µM | TGI [47]: > 100 µM | TGI [48]: > 100 µM | TGI [49]: > 100 µM

c1nc(NCCc2cnc[nH]2)c2[nH]cnc2n1
TGI [1]: > 100 µM | TGI [50]: > 100 µM | TGI [2]: > 100 µM | TGI [51]: > 100 µM | TGI [3]: > 100 µM | TGI [52]: > 100 µM | TGI [4]: > 100 µM | TGI [5]: > 100 µM | TGI [6]: > 100 µM | TGI [53]: > 100 µM | TGI [7]: > 100 µM | TGI [8]: > 100 µM | TGI [9]: > 100 µM | TGI [10]: > 100 µM | TGI [11]: > 100 µM | TGI [12]: > 100 µM | TGI [13]: > 100 µM | TGI [14]: > 100 µM | TGI [15]: > 100 µM | TGI [16]: > 100 µM | TGI [17]: > 100 µM | TGI [18]: > 100 µM | TGI [19]: > 100 µM | TGI [20]: > 100 µM | TGI [54]: > 100 µM | TGI [21]: > 100 µM | TGI [22]: > 100 µM | TGI [55]: > 100 µM | TGI [23]: > 100 µM | TGI [24]: > 100 µM | TGI [25]: > 100 µM | TGI [26]: > 100 µM | TGI [56]: > 100 µM | TGI [27]: > 100 µM | TGI [28]: > 100 µM | TGI [29]: > 100 µM | TGI [30]: > 100 µM | TGI [31]: > 100 µM | TGI [32]: > 100 µM | TGI [33]: > 100 µM | TGI [34]: > 100 µM | TGI [35]: > 100 µM | TGI [36]: > 100 µM | TGI [37]: > 100 µM | TGI [38]: > 100 µM | TGI [39]: > 100 µM | TGI [40]: > 100 µM | TGI [41]: > 100 µM | TGI [42]: > 100 µM | TGI [43]: > 100 µM | TGI [44]: > 100 µM | TGI [45]: > 100 µM | TGI [46]: > 100 µM | TGI [47]: > 100 µM | TGI [48]: > 100 µM | TGI [57]: > 100 µM | TGI [49]: > 100 µM

CC(C)(C)C1CCC2c3c([nH]c4ccccc34)C3C(=O)N(c4ccc(C#N)cc4)C(=O)C3C2C1 (stereo not given)
TGI [1]: 33.7 µM | TGI [50]: 35.5 µM | TGI [2]: 63.5 µM | TGI [51]: 65.3 µM | TGI [3]: 65.5 µM | TGI [52]: 61 µM | TGI [5]: > 100 µM | TGI [6]: 35.7 µM | TGI [53]: 41.2 µM | TGI [58]: 11.1 µM | TGI [7]: 18 µM | TGI [8]: 26.2 µM | TGI [9]: 15 µM | TGI [10]: 31.2 µM | TGI [11]: 22.6 µM | TGI [12]: 37 µM | TGI [13]: 20.3 µM | TGI [14]: > 100 µM | TGI [15]: 30.4 µM | TGI [17]: 34.6 µM | TGI [18]: 72.6 µM | TGI [19]: 37.5 µM | TGI [59]: > 100 µM | TGI [20]: 35.2 µM | TGI [54]: > 100 µM | TGI [21]: 26.9 µM | TGI [22]: > 100 µM | TGI [55]: 42.1 µM | TGI [23]: 23.6 µM | TGI [24]: 17.1 µM | TGI [26]: 53.5 µM | TGI [56]: 90.8 µM | TGI [28]: 56.8 µM | TGI [29]: 45.6 µM | TGI [30]: 17.6 µM | TGI [31]: > 100 µM | TGI [32]: 15.4 µM | TGI [33]: 29.3 µM | TGI [34]: > 100 µM | TGI [35]: 43.2 µM | TGI [36]: 30 µM | TGI [37]: 36.3 µM | TGI [38]: 25.5 µM | TGI [39]: > 100 µM | TGI [40]: 21.4 µM | TGI [41]: > 100 µM | TGI [43]: > 100 µM | TGI [44]: 39.7 µM | TGI [46]: 63.4 µM | TGI [47]: 37.1 µM | TGI [48]: 82.9 µM | TGI [49]: 33.2 µM

O=P1(N2CCOCC2)OCCO1
TGI [1]: > 100 µM | TGI [50]: > 100 µM | TGI [2]: > 100 µM | TGI [51]: > 100 µM | TGI [52]: > 100 µM | TGI [4]: > 100 µM | TGI [5]: > 100 µM | TGI [6]: > 100 µM | TGI [53]: > 100 µM | TGI [58]: > 100 µM | TGI [7]: > 100 µM | TGI [8]: > 100 µM | TGI [9]: > 100 µM | TGI [11]: > 100 µM | TGI [12]: > 100 µM | TGI [13]: > 100 µM | TGI [14]: > 100 µM | TGI [15]: > 100 µM | TGI [16]: > 100 µM | TGI [17]: > 100 µM | TGI [18]: > 100 µM | TGI [19]: > 100 µM | TGI [59]: > 100 µM | TGI [54]: > 100 µM | TGI [21]: > 100 µM | TGI [22]: > 100 µM | TGI [23]: > 100 µM | TGI [24]: > 100 µM | TGI [25]: > 100 µM | TGI [26]: > 100 µM | TGI [27]: > 100 µM | TGI [28]: > 100 µM | TGI [30]: > 100 µM | TGI [31]: > 100 µM | TGI [32]: > 100 µM | TGI [33]: > 100 µM | TGI [34]: > 100 µM | TGI [37]: > 100 µM | TGI [38]: > 100 µM | TGI [40]: > 100 µM | TGI [41]: > 100 µM | TGI [43]: > 100 µM | TGI [44]: > 100 µM | TGI [47]: > 100 µM | TGI [48]: > 100 µM | TGI [57]: > 100 µM | TGI [49]: > 100 µM
